Blank lines part the entries; values can stand above or below the molecule they belong to. Calls of active or inactive are those of the source. The calls are words filed in the database; no cut-off is given here. Where a SMILES comes first, the peptide text is derived from it.
Columns and labels:
[1] = Drug uptake in human HeLa cells measured after 4 hrs by tryphan blue staining based flow cytometry; assay type: ADME, cell-based
[2] = target: T1, CREB-binding protein/Histone acetyltransferase p300 (Homo sapiens, UniProt Q09472+Q92793); assay: Binding affinity to His-tagged human CH1 domain of p300 (323 to 423 residues)expressed in Escherichia coli Rosetta (DE3)/CBP (unknown origin) by fluorescence polarization assay
[3] = target: T2, HIF1A/p300/CREB-binding protein (Homo sapiens) (UniProt Q09472+Q16665+Q92793); assay: Inhibition of hypoxia-induced HIF1alpha/P300-CBP interaction mediated gene transcriptional activity in human HeLa cells co-transfected with luciferase reporter plasmid containing HRE and pRL-CMV vector at 25 uM incubated for 24 hrs under hypoxic condition by HRE-dependent dual luciferase reporter gene assay; assay type: cell-based
HeLa [4] = assay: Downregulation of GLUT1 mRNA expression in human HeLa cells at 25 uM measured after 24 hrs under hypoxia condition by RT-PCR analysis; assay type: functional, cell-based
HeLa [5] = assay: Downregulation of HK1 mRNA expression in human HeLa cells at 25 uM measured after 24 hrs under hypoxia condition by RT-PCR analysis; assay type: functional, cell-based
HeLa [6] = assay: Downregulation of VEGF mRNA expression in human HeLa cells at 25 uM measured after 24 hrs under hypoxia condition by RT-PCR analysis; assay type: functional, cell-based
HeLa [7] = assay: Cytotoxicity against human HeLa cells assessed as reduction in cell viability measured after 24 hrs under hypoxia condition by MTT assay; assay type: functional, cell-based
HeLa [8] = assay: Cytotoxicity against human HeLa cells assessed as cell growth inhibition measured after 24 hrs by MTT assay; assay type: functional, cell-based
MDA-MB-231 = assay: Cytotoxicity against human MDA-MB-231 cells assessed as cell growth inhibition measured after 24 hrs by MTT assay; assay type: functional, cell-based
A549 = assay: Cytotoxicity against human A549 cells assessed as cell growth inhibition measured after 24 hrs by MTT assay; assay type: functional, cell-based
[9] = target: T2, HIF1A/p300/CREB-binding protein (Homo sapiens); assay: Inhibition of hypoxia-induced HIF1alpha/P300-CBP interaction in human HeLa cells at 10 uM measured after 24 hrs by co-immunoprecipiation assay; assay type: cell-based
[10] = target: T2, HIF1A/p300/CREB-binding protein (Homo sapiens); assay: Inhibition of HA-tagged CTAD (786 to 826 residues) HIF1alpha/Flag-tagged P300 CH1 domain (323 to 423 residues)/CBP (unknown origin) interaction expressed in HEK293T cells measured after 24 hrs by co-iimunoprecipitation assay; assay type: cell-based
[11] = target: T1, CREB-binding protein/Histone acetyltransferase p300; assay: Binding affinity to p300/CBP in hypoxia-induced human HeLa cells assessed as p300/CBP pull down at 25 uM measured after 12 hrs pulldown-based Western blot analysis
[12] = Stability of the compound in mouse serum by LC/MS analysis; assay type: ADME, cell-free
HeLa [13] = assay: Downregulation of VEGF protein expression in human HeLa cells at 25 uM measured after 24 hrs under hypoxia condition by Western blot analysis; assay type: functional, cell-based
HeLa [14] = assay: Downregulation of HK1 protein expression in human HeLa cells at 25 uM measured after 24 hrs under hypoxia condition by Western blot analysis; assay type: functional, cell-based
HeLa [15] = assay: Downregulation of GLUT1 protein expression in human HeLa cells at 25 uM measured after 24 hrs under hypoxia condition by Western blot analysis; assay type: functional, cell-based
HeLa [16] = assay: Cytotoxicity against human HeLa cells assessed as cell membrane disruption measured after 4 hrs under hypoxia condition by LDH assay; assay type: functional, cell-based

T1 sequence (Q09472 whole entry, looked up, the tested form may be a part): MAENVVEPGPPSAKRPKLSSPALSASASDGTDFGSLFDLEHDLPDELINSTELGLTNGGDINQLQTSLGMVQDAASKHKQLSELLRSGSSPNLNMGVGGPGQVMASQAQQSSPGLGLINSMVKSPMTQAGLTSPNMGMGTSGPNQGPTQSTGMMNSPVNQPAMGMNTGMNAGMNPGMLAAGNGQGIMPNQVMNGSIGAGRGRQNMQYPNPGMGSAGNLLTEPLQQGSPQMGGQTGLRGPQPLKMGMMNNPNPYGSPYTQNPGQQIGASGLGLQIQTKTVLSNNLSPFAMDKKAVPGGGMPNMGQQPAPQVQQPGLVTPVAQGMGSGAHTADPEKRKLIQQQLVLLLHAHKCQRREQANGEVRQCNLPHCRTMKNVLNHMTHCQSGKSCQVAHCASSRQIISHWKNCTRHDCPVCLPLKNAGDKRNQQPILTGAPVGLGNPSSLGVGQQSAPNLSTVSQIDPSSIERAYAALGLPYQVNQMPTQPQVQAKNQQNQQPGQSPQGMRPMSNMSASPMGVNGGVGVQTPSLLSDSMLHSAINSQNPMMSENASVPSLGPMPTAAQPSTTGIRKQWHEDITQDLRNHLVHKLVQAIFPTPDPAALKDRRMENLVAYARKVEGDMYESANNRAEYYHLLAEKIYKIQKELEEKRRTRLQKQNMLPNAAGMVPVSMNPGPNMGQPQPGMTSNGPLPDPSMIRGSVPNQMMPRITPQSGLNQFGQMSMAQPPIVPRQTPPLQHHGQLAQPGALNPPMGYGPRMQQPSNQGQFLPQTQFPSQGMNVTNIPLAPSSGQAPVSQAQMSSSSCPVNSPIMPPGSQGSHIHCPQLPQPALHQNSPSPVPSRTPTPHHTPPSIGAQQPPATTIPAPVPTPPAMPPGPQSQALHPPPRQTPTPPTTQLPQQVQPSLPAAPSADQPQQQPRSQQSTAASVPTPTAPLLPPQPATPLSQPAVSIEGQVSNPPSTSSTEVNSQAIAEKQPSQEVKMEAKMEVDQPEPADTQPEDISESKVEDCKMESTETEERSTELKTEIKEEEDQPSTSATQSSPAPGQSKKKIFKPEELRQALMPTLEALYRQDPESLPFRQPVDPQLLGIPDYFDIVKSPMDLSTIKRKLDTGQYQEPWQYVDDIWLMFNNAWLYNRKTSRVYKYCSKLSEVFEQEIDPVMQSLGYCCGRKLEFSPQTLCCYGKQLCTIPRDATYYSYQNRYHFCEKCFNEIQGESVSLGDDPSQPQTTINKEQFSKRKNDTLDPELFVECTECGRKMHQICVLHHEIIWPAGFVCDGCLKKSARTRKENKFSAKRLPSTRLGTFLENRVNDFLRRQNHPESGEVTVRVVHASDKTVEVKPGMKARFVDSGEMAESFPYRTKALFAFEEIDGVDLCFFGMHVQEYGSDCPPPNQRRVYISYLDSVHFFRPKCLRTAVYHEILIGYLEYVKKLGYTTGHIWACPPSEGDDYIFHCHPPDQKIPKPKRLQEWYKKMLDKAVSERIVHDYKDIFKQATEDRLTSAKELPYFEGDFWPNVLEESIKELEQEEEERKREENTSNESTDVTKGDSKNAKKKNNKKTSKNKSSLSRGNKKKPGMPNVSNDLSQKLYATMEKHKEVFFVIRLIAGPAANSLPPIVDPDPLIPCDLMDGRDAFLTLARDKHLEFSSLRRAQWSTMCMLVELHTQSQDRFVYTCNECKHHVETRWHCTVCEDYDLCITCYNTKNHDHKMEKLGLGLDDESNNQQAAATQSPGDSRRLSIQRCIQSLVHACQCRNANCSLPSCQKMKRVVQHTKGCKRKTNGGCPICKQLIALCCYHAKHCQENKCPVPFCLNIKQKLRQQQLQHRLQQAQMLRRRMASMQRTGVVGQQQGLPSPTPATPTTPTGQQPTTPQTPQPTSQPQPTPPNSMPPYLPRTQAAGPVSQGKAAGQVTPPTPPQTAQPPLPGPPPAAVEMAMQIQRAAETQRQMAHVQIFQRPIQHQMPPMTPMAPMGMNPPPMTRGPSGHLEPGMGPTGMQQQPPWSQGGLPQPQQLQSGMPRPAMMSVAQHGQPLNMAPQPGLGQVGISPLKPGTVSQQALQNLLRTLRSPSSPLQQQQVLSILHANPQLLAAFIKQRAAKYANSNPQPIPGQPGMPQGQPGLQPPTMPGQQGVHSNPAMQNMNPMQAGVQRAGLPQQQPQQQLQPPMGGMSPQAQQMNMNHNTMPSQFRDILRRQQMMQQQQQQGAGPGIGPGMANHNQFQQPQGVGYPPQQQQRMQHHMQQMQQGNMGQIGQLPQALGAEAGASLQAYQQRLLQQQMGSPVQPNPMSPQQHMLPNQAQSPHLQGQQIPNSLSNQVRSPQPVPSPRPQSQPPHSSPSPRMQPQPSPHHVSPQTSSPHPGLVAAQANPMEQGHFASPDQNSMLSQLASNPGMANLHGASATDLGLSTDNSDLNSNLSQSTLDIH
T1 sequence (Q92793 whole entry, looked up, the tested form may be a part): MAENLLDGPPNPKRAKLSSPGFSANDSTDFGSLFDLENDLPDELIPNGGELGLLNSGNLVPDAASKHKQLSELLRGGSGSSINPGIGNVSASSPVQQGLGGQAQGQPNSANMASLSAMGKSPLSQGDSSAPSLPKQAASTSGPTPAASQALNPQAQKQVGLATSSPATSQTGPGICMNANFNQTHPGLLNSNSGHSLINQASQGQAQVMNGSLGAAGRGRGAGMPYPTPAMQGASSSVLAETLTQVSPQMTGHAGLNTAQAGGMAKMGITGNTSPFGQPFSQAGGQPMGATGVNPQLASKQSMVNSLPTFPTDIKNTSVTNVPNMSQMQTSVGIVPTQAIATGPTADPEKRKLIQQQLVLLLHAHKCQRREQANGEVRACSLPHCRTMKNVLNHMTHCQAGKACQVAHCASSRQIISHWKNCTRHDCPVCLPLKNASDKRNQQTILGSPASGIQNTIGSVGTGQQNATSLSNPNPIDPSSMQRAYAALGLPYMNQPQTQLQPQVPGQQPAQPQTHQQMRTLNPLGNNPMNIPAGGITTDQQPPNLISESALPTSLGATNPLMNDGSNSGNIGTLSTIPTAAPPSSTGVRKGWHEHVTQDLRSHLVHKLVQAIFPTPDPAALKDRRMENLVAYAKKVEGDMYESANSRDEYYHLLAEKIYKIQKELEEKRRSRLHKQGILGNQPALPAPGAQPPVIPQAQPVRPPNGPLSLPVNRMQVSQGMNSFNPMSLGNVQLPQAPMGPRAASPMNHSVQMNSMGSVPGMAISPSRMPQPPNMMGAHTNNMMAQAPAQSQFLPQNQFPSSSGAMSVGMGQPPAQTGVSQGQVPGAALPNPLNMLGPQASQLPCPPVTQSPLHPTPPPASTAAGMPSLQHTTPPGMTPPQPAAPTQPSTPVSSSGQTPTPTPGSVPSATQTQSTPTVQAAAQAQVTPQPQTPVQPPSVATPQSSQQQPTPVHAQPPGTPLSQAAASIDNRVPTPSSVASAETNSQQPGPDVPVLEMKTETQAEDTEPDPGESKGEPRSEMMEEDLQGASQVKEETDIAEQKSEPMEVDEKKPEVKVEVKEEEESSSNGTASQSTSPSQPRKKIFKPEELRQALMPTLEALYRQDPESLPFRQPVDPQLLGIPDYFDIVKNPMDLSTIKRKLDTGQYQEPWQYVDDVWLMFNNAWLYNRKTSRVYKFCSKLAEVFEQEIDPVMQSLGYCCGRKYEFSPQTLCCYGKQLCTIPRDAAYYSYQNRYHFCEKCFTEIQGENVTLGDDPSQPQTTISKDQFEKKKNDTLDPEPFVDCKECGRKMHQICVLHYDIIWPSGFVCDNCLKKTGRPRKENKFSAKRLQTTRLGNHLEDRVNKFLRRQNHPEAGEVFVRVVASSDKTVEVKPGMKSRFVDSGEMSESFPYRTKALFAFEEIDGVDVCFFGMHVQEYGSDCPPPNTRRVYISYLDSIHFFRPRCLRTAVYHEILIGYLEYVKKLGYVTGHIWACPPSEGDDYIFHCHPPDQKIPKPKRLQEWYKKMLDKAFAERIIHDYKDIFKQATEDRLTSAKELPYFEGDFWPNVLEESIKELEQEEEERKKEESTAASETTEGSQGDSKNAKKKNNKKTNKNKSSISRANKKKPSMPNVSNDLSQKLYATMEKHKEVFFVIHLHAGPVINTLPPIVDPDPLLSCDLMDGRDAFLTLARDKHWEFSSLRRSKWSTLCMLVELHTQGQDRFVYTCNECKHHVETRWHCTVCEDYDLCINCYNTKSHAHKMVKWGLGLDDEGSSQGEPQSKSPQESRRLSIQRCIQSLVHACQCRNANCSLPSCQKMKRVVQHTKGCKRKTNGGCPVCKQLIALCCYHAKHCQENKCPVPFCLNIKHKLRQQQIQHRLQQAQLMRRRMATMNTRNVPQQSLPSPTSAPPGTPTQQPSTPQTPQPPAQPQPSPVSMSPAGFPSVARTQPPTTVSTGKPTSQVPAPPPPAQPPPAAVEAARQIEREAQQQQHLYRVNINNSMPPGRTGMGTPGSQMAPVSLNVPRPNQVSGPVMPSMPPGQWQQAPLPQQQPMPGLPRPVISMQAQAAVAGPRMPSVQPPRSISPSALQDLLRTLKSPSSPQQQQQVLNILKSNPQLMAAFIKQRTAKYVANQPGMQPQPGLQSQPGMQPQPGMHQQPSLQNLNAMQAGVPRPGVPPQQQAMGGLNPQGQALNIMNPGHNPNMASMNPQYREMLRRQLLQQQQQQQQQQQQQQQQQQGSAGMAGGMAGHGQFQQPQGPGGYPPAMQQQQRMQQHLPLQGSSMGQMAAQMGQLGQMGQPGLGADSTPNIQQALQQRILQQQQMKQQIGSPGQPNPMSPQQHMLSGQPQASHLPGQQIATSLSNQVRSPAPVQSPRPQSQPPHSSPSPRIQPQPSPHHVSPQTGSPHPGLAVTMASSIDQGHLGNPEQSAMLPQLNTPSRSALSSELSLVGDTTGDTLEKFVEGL

Kd [2]: 33.7 nM
Molecule: CC[C@H](C)[C@H](NC(=O)[C@H](CCCNC(=N)N)NC(=O)[C@H](CC(=O)O)NC(=O)[C@H](CC(C)C)NC(=O)CNC(=O)[C@H](CCSC)NC(=O)[C@H](CCC(=O)O)NC(=O)[C@@H](NC(=O)[C@@H](NC(=O)[C@H](CC(C)C)NC(=O)[C@H](CO)NC(=O)[C@H](CCSC)NC(=O)[C@H](CC(C)C)NC(=O)[C@@H](NC(=O)[C@H]1CNC(=O)[C@@H](N)CC(=O)N[C@@H](CC(=O)O)C(=O)N[C@@H](CCC(=O)O)C(=O)N1)C(C)C)C(C)C)[C@@H](C)CC)C(=O)N[C@@H](CCCCN)C(=O)N[C@@H](CCC(=O)O)C(=O)N[C@@H](CC(C)C)C(=O)N1CCC[C@H]1C(=O)N[C@@H](CCC(=O)O)C(=O)N[C@@H](CC(C)C)C(N)=O

Drug uptake [1]: Active
Molecule: H-DEEVLMSLVIEMGLDRWKELPEL-OH

Kd [2]: 36.2 nM
Molecule: H-DEEVLWSLVIEMGLDRWKELPEL-OH

Kd [2]: 1544 nM
Molecule: H-GLDRIKELPELWLG-OH

Kd [2]: 312.5 nM
Molecule: H-QNEFDFMTDF-OH

Activity [11]: Active
Stability [12]: Stable
Kd [2]: 22.3 nM
Molecule: H-DEEILMSLVIEMGLDRWKELPEL-OH
Activity (HeLa [16]): Active

Second part, the molecule before the results:

Molecule: H-DEEVLWSLVIEMGLDRIKELPEL-OH
Drug uptake [1]: Active

Molecule: H-DEEVLMSLVIEM-OH
Kd [2]: 228.2 nM

Molecule: H-DEEILMSLVIEMGLDRIKELPEL-OH
Drug uptake [1]: Active

Molecule: H-DEEILWSLVIEMGLDRWKELPEL-OH
Kd [2]: 29.5 nM

Molecule: H-DEEVLMSLVIEMGLDRIKELPELWLGQNEFDFMTDF-OH
Kd [2]: 17.7 nM

Molecule: H-DEEVLMSLVIEMGLDRIKELPEL-OH
Kd [2]: 37.1 nM

Molecule: H-LPELWLGQNEFDFMTDF-OH
Kd [2]: 226 nM

Molecule: CC[C@H](C)[C@H](NC(=O)[C@@H]1CNC(=O)[C@@H](N)CC(=O)N[C@@H](CC(=O)O)C(=O)N[C@@H](CCC(=O)O)C(=O)N1)C(=O)N[C@@H](CC(C)C)C(=O)N[C@@H](CCSC)C(=O)N[C@@H](CO)C(=O)N[C@@H](CC(C)C)C(=O)N[C@H](C(=O)N[C@H](C(=O)N[C@@H](CCC(=O)O)C(=O)N[C@@H](CCSC)C(=O)NCC(=O)N[C@@H](CC(C)C)C(=O)N[C@@H](CC(=O)O)C(=O)N[C@@H](CCCNC(=N)N)C(=O)N[C@@H](Cc1c[nH]c2ccccc12)C(=O)N[C@@H](CCCCN)C(=O)N[C@@H](CCC(=O)O)C(=O)N[C@@H](CC(C)C)C(=O)N1CCC[C@H]1C(=O)N[C@@H](CCC(=O)O)C(=O)N[C@@H](CC(C)C)C(N)=O)[C@@H](C)CC)C(C)C (HELM PEPTIDE1{D.E.[O=C([C@H](CN[*:3])N[*:1])[*:2]].I.L.M.S.L.V.I.E.M.G.L.D.R.W.K.E.L.P.E.L.[am]}|CHEM1{[N[C@@H](CC(=O)[*:1])C(=O)[*:2]]}$PEPTIDE1,CHEM1,1:R1-1:R1|PEPTIDE1,CHEM1,3:R3-1:R2$$$V2.0)
inhibition [3]: Active
Activity (HeLa [4]): Active
Activity (HeLa [5]): Active
Activity (HeLa [6]): Active
growth inhibition (GI) (HeLa [7]): Active
growth inhibition (GI) (HeLa [8]): Active
growth inhibition (GI) (MDA-MB-231): Active
Activity (A549): Active
inhibition [9]: Active
inhibition [10]: Active
Activity [11]: Active
Stability [12]: Stable
Kd [2]: 21.4 nM
Activity (HeLa [13]): Active
Activity (HeLa [14]): Active
Activity (HeLa [15]): Active

Molecule: H-DEEILWSLVIEMGLDRIKELPEL-OH
Activity (HeLa [16]): Active
Kd [2]: 32 nM
